From patent US20250339569A1, “CARBONIC ANHYDRASE IX LIGANDS” (priority 2021, published 2025) come the findings set out here.

Starred links: 1 amine or outer side, 2 acyl side, 3 side chain; linkers in the order of their positions; H or OH if unused. Positions of bridges follow the written chain, without caps; N, C: chain ends. Non-standard residues stand in square brackets, D forms with d. Residues, ends and D or L forms follow the SMILES beside them. No end group written: not given here. *: point of attachment. DOTA = O=C(O)CN1CCN(CC(=O)O)CCN(CC(=O)*)CCN(CC(=O)O)CC1; NGly(3-aminopropyl) = O=C(CN(CCCN[*:3])[*:1])[*:2]; mXylylene = c1cc(C[*:1])cc(C[*:2])c1; Pen = CC(C)(S)[C@H](N)C(=O)O; APAc = not defined here; Aib = CC(C)(N)C(=O)O; Sar = CNCC(=O)O

In the first experiment the target is T1, CAIX-expressing human HT-29 colorectal cancer cells (Homo sapiens, UniProt Q16790).
T1 construct: CAIX-expressing human HT-29 colorectal cancer cells; host or cells: HT-29 human colorectal cancer cells
Put plainly: FACS binding assay (IC50 determination, competition with tracer 3BP-2776 or 3BP-4149). The conditions noted are these: FACS binding assay, HT-29 cells, competition with tracer 3BP-2776 (10 nM, biotin-labeled), 4° C., 1 hour. The protocol:
In order to determine binding of compounds according to the present invention to CAIX-expressing cells, a FACS binding assay was established.
CAIX-expressing human HT-29 colorectal cancer cells (DSMZ, RRID: CVCL_0320) were cultured in McCoys's 5A modified medium (Biochrom, #F1015) including 10% fetal calf serum (FCS), 2 mM L-glutamine, 100 U/ml penicillin and 100 μg/mL streptomycin. Cells were detached with Accutase (Biolegend, #423201) and washed in FACS buffer (PBS including 1% FCS). Cells were diluted in FACS buffer to a final concentration of 500.000 cells per ml. 200 μL of the cell suspension were transferred to a u-shaped non-binding 96-well plate (Greiner) and cells were washed in ice-cold FACS buffer.
When biotinylated compounds were used an additional incubation step with 1 μg/mL APC-Streptavidin (Miltenyi; #130-106-791) in 50 μL FACS buffer for 30 minutes on ice was performed.
Cells were washed twice with ice-cold FACS buffer and analyzed in an Attune NxT flow cytometer (Thermo Fisher). Median fluorescence intensities (MFI) of the APC/Cy5-channel were calculated by Attune NxT software. MFI values were plotted against peptide concentration and four parameter logistic (4PL) curve fitting and EC50/pEC50 or IC50/pIC50 calculations were performed using ActivityBase software.
(A flow cytometer gives signals particle by particle.)
For the compound “3BP-4178 ([dP]PVYCE[dP]DWLTWSC; linker 5-14 via mXylylene; not fully specified (bridges))”, the “pIC50 category (activity)” value is listed as “A (pIC50 values >8.0)”.

Regarding “3BP-4252 ({DOTA-APAc}-VYCEG[NGly(3-aminopropyl)]WLEWSC-NH2; linker 3-12 via mXylylene; lactam 6-9; reading uncertain)”, the “pIC50 category (activity)” value was “B (pIC50 values between 7.1 and 8.0)”.

The same experiment, now with this note: FACS competition on HT-29 cells, Tracer ID 3BP-2776 (10 nM, biotin-labeled), 4° C., 1 hour; read-out: pIC50 category (activity) (converted).
Consider `CSCC[C@H](NC(C)=O)C(=O)N[C@H](C(=O)N[C@@H](Cc1ccc(O)cc1)C(=O)N[C@H]1CSCc2cccc(c2)CSC[C@@H](C(N)=O)NC(=O)[C@H](CCC(N)=O)NC(=O)[C@H](Cc2c[nH]c3ccccc23)NC(=O)[C@H]([C@@H](C)O)NC(=O)[C@H](CC(C)C)NC(=O)[C@H](Cc2c[nH]c3ccccc23)NC(=O)[C@H](CC(=O)O)NC(=O)CNC(=O)[C@H](CCC(=O)O)NC1=O)C(C)C` [3BP-2836] (Ac-MVYCEGDWLTWQC-NH2; linker 4-13 via mXylylene), for which the IC50 is 100 to 794 nM.

`CC(=O)N[C@@H](C(=O)N[C@@H](Cc1ccc(O)cc1)C(=O)N[C@H]1CSCc2cccc(c2)CSC[C@@H](C(N)=O)NC(=O)[C@H](CCC(N)=O)NC(=O)[C@H](Cc2c[nH]c3ccccc23)NC(=O)[C@H]([C@@H](C)O)NC(=O)[C@H](CC(C)C)NC(=O)[C@H](Cc2c[nH]c3ccccc23)NC(=O)[C@H](CC(=O)O)NC(=O)CNC(=O)[C@H](CCC(=O)O)NC1=O)C(C)C` [3BP-3043] (Ac-[dV]YCEGDWLTWQC-NH2; linker 3-12 via mXylylene): the IC50 was 10 to 79.4 nM.

For the compound `CC(=O)N[C@H](C(=O)N[C@H](Cc1ccc(O)cc1)C(=O)N[C@H]1CSCc2cccc(c2)CSC[C@@H](C(N)=O)NC(=O)[C@H](CCC(N)=O)NC(=O)[C@H](Cc2c[nH]c3ccccc23)NC(=O)[C@H]([C@@H](C)O)NC(=O)[C@H](CC(C)C)NC(=O)[C@H](Cc2c[nH]c3ccccc23)NC(=O)[C@H](CC(=O)O)NC(=O)CNC(=O)[C@H](CCC(=O)O)NC1=O)C(C)C` [3BP-3044] (Ac-V[dY]CEGDWLTWQC-NH2; linker 3-12 via mXylylene), the IC50 is 100 to 794 nM.

In the case of `CC(=O)N[C@H](C(=O)N[C@@H](Cc1ccc(O)cc1)C(=O)N[C@H]1CSCc2cccc(c2)CSC[C@@H](C(N)=O)NC(=O)[C@H](CCC(N)=O)NC(=O)[C@H](Cc2c[nH]c3ccccc23)NC(=O)[C@H]([C@@H](C)O)NC(=O)[C@H](CC(C)C)NC(=O)[C@H](Cc2c[nH]c3ccccc23)NC(=O)[C@H](CC(=O)O)NC(=O)CNC(=O)[C@@H](CCC(=O)O)NC1=O)C(C)C` [3BP-3045] (Ac-VYC[dE]GDWLTWQC-NH2; linker 3-12 via mXylylene), the IC50 is 100 to 794 nM.

In the case of `CC(=O)N[C@H](C(=O)N[C@@H](Cc1ccc(O)cc1)C(=O)N[C@H]1CSCc2cccc(c2)CSC[C@@H](C(N)=O)NC(=O)[C@H](CCC(N)=O)NC(=O)[C@H](Cc2c[nH]c3ccccc23)NC(=O)[C@H]([C@@H](C)O)NC(=O)[C@H](CC(C)C)NC(=O)[C@H](Cc2c[nH]c3ccccc23)NC(=O)[C@H](CC(=O)O)NC(=O)[C@@H](C)NC(=O)[C@H](CCC(=O)O)NC1=O)C(C)C` [3BP-3046] (Ac-VYCE[dA]DWLTWQC-NH2; linker 3-12 via mXylylene), the IC50 is less than 10 nM.

In the case of `CC(=O)N[C@H](C(=O)N[C@@H](Cc1ccc(O)cc1)C(=O)N[C@H]1CSCc2cccc(c2)CSC[C@@H](C(N)=O)NC(=O)[C@H](CCC(N)=O)NC(=O)[C@H](Cc2c[nH]c3ccccc23)NC(=O)[C@H]([C@@H](C)O)NC(=O)[C@H](CC(C)C)NC(=O)[C@H](Cc2c[nH]c3ccccc23)NC(=O)[C@@H](CC(=O)O)NC(=O)CNC(=O)[C@H](CCC(=O)O)NC1=O)C(C)C` [3BP-3047] (Ac-VYCEG[dD]WLTWQC-NH2; linker 3-12 via mXylylene), the IC50 was 100 to 794 nM.

As to `CC(=O)N[C@H](C(=O)N[C@@H](Cc1ccc(O)cc1)C(=O)N[C@H]1CSCc2cccc(c2)CSC[C@@H](C(N)=O)NC(=O)[C@H](CCC(N)=O)NC(=O)[C@H](Cc2c[nH]c3ccccc23)NC(=O)[C@H]([C@@H](C)O)NC(=O)[C@@H](CC(C)C)NC(=O)[C@H](Cc2c[nH]c3ccccc23)NC(=O)[C@H](CC(=O)O)NC(=O)CNC(=O)[C@H](CCC(=O)O)NC1=O)C(C)C` [3BP-3048] (Ac-VYCEGDW[dL]TWQC-NH2; linker 3-12 via mXylylene), the IC50 was 100 to 794 nM.

`CC(=O)N[C@H](C(=O)N[C@@H](Cc1ccc(O)cc1)C(=O)N[C@H]1CSCc2cccc(c2)CSC[C@@H](C(N)=O)NC(=O)[C@H](CCC(N)=O)NC(=O)[C@H](Cc2c[nH]c3ccccc23)NC(=O)[C@@H]([C@H](C)O)NC(=O)[C@H](CC(C)C)NC(=O)[C@H](Cc2c[nH]c3ccccc23)NC(=O)[C@H](CC(=O)O)NC(=O)CNC(=O)[C@H](CCC(=O)O)NC1=O)C(C)C` [3BP-3049] (Ac-VYCEGDWL[dT]WQC-NH2; linker 3-12 via mXylylene): the IC50 is 100 to 794 nM.

Consider `CC(=O)N[C@H](C(=O)N[C@@H](Cc1ccc(O)cc1)C(=O)N[C@H]1CSCc2cccc(c2)CSC[C@@H](C(N)=O)NC(=O)[C@H](CCC(N)=O)NC(=O)[C@H](Cc2c[nH]c3ccccc23)NC(=O)[C@H]([C@@H](C)O)NC(=O)[C@H](CC(C)C)NC(=O)[C@H](Cc2c[nH]c3ccccc23)NC(=O)[C@H](CC(=O)O)NC(=O)CNC(=O)[C@H](C)NC1=O)C(C)C` [3BP-3052] (Ac-VYCAGDWLTWQC-NH2; linker 3-12 via mXylylene), for which the IC50 was less than 10 nM.

In the case of `CC(=O)N[C@H](C(=O)N[C@@H](Cc1ccc(O)cc1)C(=O)N[C@H]1CSCc2cccc(c2)CSC[C@@H](C(N)=O)NC(=O)[C@H](CCC(N)=O)NC(=O)[C@H](Cc2c[nH]c3ccccc23)NC(=O)[C@H]([C@@H](C)O)NC(=O)[C@H](CC(C)C)NC(=O)[C@H](Cc2c[nH]c3ccccc23)NC(=O)[C@H](C)NC(=O)CNC(=O)[C@H](CCC(=O)O)NC1=O)C(C)C` [3BP-3053] (Ac-VYCEGAWLTWQC-NH2; linker 3-12 via mXylylene), the IC50 is 10 to 79.4 nM.

In the case of `CC(=O)N[C@H](C(=O)N[C@@H](Cc1ccc(O)cc1)C(=O)N[C@H]1CSCc2cccc(c2)CSC[C@@H](C(N)=O)NC(=O)[C@H](CCC(N)=O)NC(=O)[C@H](Cc2c[nH]c3ccccc23)NC(=O)[C@H]([C@@H](C)O)NC(=O)[C@H](C)NC(=O)[C@H](Cc2c[nH]c3ccccc23)NC(=O)[C@H](CC(=O)O)NC(=O)CNC(=O)[C@H](CCC(=O)O)NC1=O)C(C)C` [3BP-3055] (Ac-VYCEGDWATWQC-NH2; linker 3-12 via mXylylene), the IC50 is 100 to 794 nM.

As for `CC(=O)N[C@H](C(=O)N[C@@H](Cc1ccc(O)cc1)C(=O)N[C@H]1CSCc2cccc(c2)CSC[C@@H](C(N)=O)NC(=O)[C@H](CCC(N)=O)NC(=O)[C@H](Cc2c[nH]c3ccccc23)NC(=O)[C@H](C)NC(=O)[C@H](CC(C)C)NC(=O)[C@H](Cc2c[nH]c3ccccc23)NC(=O)[C@H](CC(=O)O)NC(=O)CNC(=O)[C@H](CCC(=O)O)NC1=O)C(C)C` [3BP-3056] (Ac-VYCEGDWLAWQC-NH2; linker 3-12 via mXylylene), the IC50 was 10 to 79.4 nM.

For `CC(=O)N[C@H](C(=O)N[C@@H](Cc1ccc(O)cc1)C(=O)N[C@H]1CSCc2cccc(c2)CSC[C@@H](C(N)=O)NC(=O)[C@H](CCC(N)=O)NC(=O)[C@H](Cc2c[nH]c3ccccc23)NC(=O)[C@H]([C@@H](C)O)NC(=O)[C@H](CC(C)C)NC(=O)[C@H](Cc2c[nH]c3ccccc23)NC(=O)[C@H](CC(=O)O)NC(=O)C(C)(C)NC(=O)[C@H](CCC(=O)O)NC1=O)C(C)C` [3BP-3059] (Ac-VYCE[Aib]DWLTWQC-NH2; linker 3-12 via mXylylene), the IC50 was less than 10 nM.

On to `CC(=O)N[C@H](C(=O)N[C@@H](Cc1ccc(O)cc1)C(=O)N[C@H]1CSCc2cccc(c2)CSC[C@@H](C(N)=O)NC(=O)[C@H](CCC(N)=O)NC(=O)[C@H](Cc2c[nH]c3ccccc23)NC(=O)[C@H]([C@@H](C)O)NC(=O)[C@H](CC(C)C)NC(=O)[C@H](Cc2c[nH]c3ccccc23)NC(=O)[C@H](CC(=O)O)NC(=O)CN(C)C(=O)[C@H](CCC(=O)O)NC1=O)C(C)C` [3BP-3060] (Ac-VYCE[Sar]DWLTWQC-NH2; linker 3-12 via mXylylene), for which the IC50 was less than 10 nM.

As for `CC(=O)N[C@H](C(=O)N[C@@H](Cc1ccc(O)cc1)C(=O)N[C@H]1CSCc2cccc(c2)CSC[C@@H](C(N)=O)NC(=O)[C@H](CCC(N)=O)NC(=O)[C@H](Cc2c[nH]c3ccccc23)NC(=O)[C@H]([C@@H](C)O)NC(=O)[C@H](CC(C)C)NC(=O)[C@H](Cc2c[nH]c3ccccc23)NC(=O)C(C)(C)NC(=O)CNC(=O)[C@H](CCC(=O)O)NC1=O)C(C)C` [3BP-3061] (Ac-VYCEG[Aib]WLTWQC-NH2; linker 3-12 via mXylylene), the IC50 is 100 to 794 nM.

In the case of `CC(=O)N[C@H](C(=O)N[C@@H](Cc1ccc(O)cc1)C(=O)N[C@@H]1C(=O)N[C@@H](CCC(=O)O)C(=O)NCC(=O)N[C@@H](CC(=O)O)C(=O)N[C@@H](Cc2c[nH]c3ccccc23)C(=O)N[C@@H](CC(C)C)C(=O)N[C@@H]([C@@H](C)O)C(=O)N[C@@H](Cc2c[nH]c3ccccc23)C(=O)N[C@@H](CCC(N)=O)C(=O)N[C@H](C(N)=O)CSCc2cccc(c2)CSC1(C)C)C(C)C` [3BP-3063] (Ac-VY[Pen]EGDWLTWQC-NH2; linker 3-12 via mXylylene), the IC50 is 10 to 79.4 nM.
